Assays:
[1] = Inhibition of testerone 5-alpha-reductase at 25 ug/mL
[2] = Inhibition of testerone 5-alpha-reductase at 50 ug/mL
[3] = Inhibition of testerone 5-alpha-reductase at 100 ug/mL

| SMILES | inhibition [1] [%] | inhibition [2] [%] | inhibition [3] [%] |
| --- | --- | --- | --- |
| CC1(C)[C@@H](O)CC[C@]2(C)[C@H]3C(=O)C=C4[C@@H]5C[C@@](C)(C(=O)O)CC[C@]5(C)CC[C@@]4(C)[C@]3(C)CC[C@@H]12 | 31.7 | 64.7 | 87.1 |
| COc1cc2oc(Cc3cc(OC)c(OC)cc3OC/C=C/c3ccccc3)c(-c3ccccc3)c2cc1O | 11.5 | 15.9 | 18.1 |
| COc1cc(O)ccc1C(=O)/C=C/c1ccccc1 | 19.5 | 20.7 | 22.8 |
| COC1=CC(=O)C(Cc2oc3cc(OC)c(O)cc3c2-c2ccccc2)=CC1(C/C=C/c1ccccc1)OC (stereo not drawn) | 0.6 | 3.8 | 17 |
| C=CC(c1ccccc1)c1cc(O)c(OC)cc1OC (stereo not drawn) | 8.2 | 18.9 | 51.8 |
| COC1=CC(=O)c2cc(-c3ccccc3)c3cc(O)c(OC)cc3c2C1=O | 42.8 | 52 | 65.6 |

Source: ChEMBL document CHEMBL1146582, “Phenolic constituents from Dalbergia cochinchinensis” (J Nat Prod, 2003)
